# Experimental data from patent publication US9326506B2, “Preparation method, agricultural composition and applications of natural brassinolide analogs” (CHENGDU NEWSUN CROPSCIENCE CO., LTD, priority 2012, dated 2016).
# Tested on: rice
# Test: Low temperature assay on rice seedlings
# Format: in vivo
# Experimental: According to a low temperature assay, we measured parameters including plant height, number of leaf, area of leaf, number of tiller, weight of root at low temperature to completely determine effects of the natural brassinolide analogues on the resistance to low temperature of a plant.
# The natural brassinolide analogues, BR1, BR2, BR3, BR4, BR5 and BR6, used herein, were those prepared by the method of Example 1. Respectively the analogues were dissolved into 95% (V/V) ethanol solution, and then diluted with pure water to 1 mg/L, 0.1 mg/L, 0.01 mg/L, 0.001 mg/L and 0.0001 mg/L. In addition, pure water was used as a control.
# After rice seeds were disinfected by using 5% sodium hypochlorite solution treatment, they were rinsed with distilled water until their pH>7, placed into a petri dish in a dark incubator, and cultured by using water at 30° C.±2° C. for 9 days. Then respectively the nine-day-old etiolated seedlings of rice were immersed in the above solutions containing different concentrations of the natural brassinolide analogues or pure water, and cultured at the temperature of 1° C., 2° C., 3° C., 4° C. and 5° C. for 24 hr. The parameters including plant height, area of leaf and weight of root after 3, 6, 9 and 12 days and number of leaf and number of tiller after 12 days were measured.
smiles,measurement,setting,value
C=C(C(C)C)[C@@H](O)[C@H](O)[C@@H](C)[C@H]1CCC2C3COC(=O)C4C[C@H](O)[C@H](O)C[C@]4(C)C3CC[C@@]21C (stereo partly shown) [BR3],Area of leaf,"0.001 mg/l, 2 °C, 6 days",11.6 cm^2
same,Height,"0.001 mg/l, 2 °C, 6 days",7.1 cm
same,Weight of root,"0.001 mg/l, 2 °C, 6 days",3.0 g
same,Area of leaf,"0.001 mg/l, 2 °C, 9 days",12 cm^2
same,Height,"0.001 mg/l, 2 °C, 9 days",7.1 cm
same,Weight of root,"0.001 mg/l, 2 °C, 9 days",3.1 g
same,Area of leaf,"0.001 mg/l, 2 °C, 12 days",13.1 cm^2
same,Height,"0.001 mg/l, 2 °C, 12 days",7.3 cm
same,Number of leaf,"0.001 mg/l, 2 °C, 12 days",3
same,Number of tiller,"0.001 mg/l, 2 °C, 12 days",3
same,Weight of root,"0.001 mg/l, 2 °C, 12 days",3.9 g
same,Area of leaf,"0.001 mg/l, 3 °C, 3 days",10 cm^2
same,Height,"0.001 mg/l, 3 °C, 3 days",7 cm
same,Weight of root,"0.001 mg/l, 3 °C, 3 days",2.5 g
same,Area of leaf,"0.001 mg/l, 3 °C, 6 days",12 cm^2
same,Height,"0.001 mg/l, 3 °C, 6 days",7.2 cm
same,Weight of root,"0.001 mg/l, 3 °C, 6 days",2.7 g
same,Area of leaf,"0.001 mg/l, 3 °C, 9 days",12.2 cm^2
same,Height,"0.001 mg/l, 3 °C, 9 days",7.3 cm
same,Weight of root,"0.001 mg/l, 3 °C, 9 days",2.9 g
same,Area of leaf,"0.001 mg/l, 3 °C, 12 days",13 cm^2
same,Height,"0.001 mg/l, 3 °C, 12 days",7.4 cm
same,Number of leaf,"0.001 mg/l, 3 °C, 12 days",3
same,Number of tiller,"0.001 mg/l, 3 °C, 12 days",2
same,Weight of root,"0.001 mg/l, 3 °C, 12 days",2.9 g
same,Area of leaf,"0.001 mg/l, 4 °C, 3 days",10 cm^2
same,Height,"0.001 mg/l, 4 °C, 3 days",7.1 cm
same,Weight of root,"0.001 mg/l, 4 °C, 3 days",2.5 g
same,Area of leaf,"0.001 mg/l, 4 °C, 6 days",12 cm^2
same,Height,"0.001 mg/l, 4 °C, 6 days",7.3 cm
same,Weight of root,"0.001 mg/l, 4 °C, 6 days",2.6 g
same,Area of leaf,"0.001 mg/l, 4 °C, 9 days",13 cm^2
same,Height,"0.001 mg/l, 4 °C, 9 days",7.4 cm
same,Weight of root,"0.001 mg/l, 4 °C, 9 days",2.9 g
same,Area of leaf,"0.001 mg/l, 4 °C, 12 days",13.1 cm^2
same,Height,"0.001 mg/l, 4 °C, 12 days",7.5 cm
same,Number of leaf,"0.001 mg/l, 4 °C, 12 days",3
same,Number of tiller,"0.001 mg/l, 4 °C, 12 days",2
same,Weight of root,"0.001 mg/l, 4 °C, 12 days",2.9 g
same,Area of leaf,"0.001 mg/l, 5 °C, 3 days",10.2 cm^2
same,Height,"0.001 mg/l, 5 °C, 3 days",7.2 cm
same,Weight of root,"0.001 mg/l, 5 °C, 3 days",2.8 g
same,Area of leaf,"0.001 mg/l, 5 °C, 6 days",14 cm^2
same,Height,"0.001 mg/l, 5 °C, 6 days",7.5 cm
same,Weight of root,"0.001 mg/l, 5 °C, 6 days",2.9 g
same,Area of leaf,"0.001 mg/l, 5 °C, 9 days",15.4 cm^2
same,Height,"0.001 mg/l, 5 °C, 9 days",7.8 cm
same,Weight of root,"0.001 mg/l, 5 °C, 9 days",3.0 g
same,Area of leaf,"0.001 mg/l, 5 °C, 12 days",16 cm^2
same,Height,"0.001 mg/l, 5 °C, 12 days",7.9 cm
same,Number of leaf,"0.001 mg/l, 5 °C, 12 days",3
same,Number of tiller,"0.001 mg/l, 5 °C, 12 days",3
same,Weight of root,"0.001 mg/l, 5 °C, 12 days",3.7 g
same,Area of leaf,"0.01 mg/l, 1 °C, 3 days",10 cm^2
same,Height,"0.01 mg/l, 1 °C, 3 days",7.0 cm
same,Weight of root,"0.01 mg/l, 1 °C, 3 days",2.8 g
same,Area of leaf,"0.01 mg/l, 1 °C, 6 days",11.6 cm^2
same,Height,"0.01 mg/l, 1 °C, 6 days",7.1 cm
same,Weight of root,"0.01 mg/l, 1 °C, 6 days",3.0 g
same,Area of leaf,"0.01 mg/l, 1 °C, 9 days",12.4 cm^2
same,Height,"0.01 mg/l, 1 °C, 9 days",7.4 cm
same,Weight of root,"0.01 mg/l, 1 °C, 9 days",3.1 g
same,Area of leaf,"0.01 mg/l, 1 °C, 12 days",13.6 cm^2
same,Height,"0.01 mg/l, 1 °C, 12 days",7.5 cm
same,Number of leaf,"0.01 mg/l, 1 °C, 12 days",3
same,Number of tiller,"0.01 mg/l, 1 °C, 12 days",3
same,Weight of root,"0.01 mg/l, 1 °C, 12 days",3.9 g
same,Area of leaf,"0.01 mg/l, 2 °C, 3 days",10.1 cm^2
same,Height,"0.01 mg/l, 2 °C, 3 days",7.1 cm
same,Weight of root,"0.01 mg/l, 2 °C, 3 days",2.8 g
same,Area of leaf,"0.01 mg/l, 2 °C, 6 days",11 cm^2
same,Height,"0.01 mg/l, 2 °C, 6 days",7.2 cm
same,Weight of root,"0.01 mg/l, 2 °C, 6 days",3.1 g
same,Area of leaf,"0.01 mg/l, 2 °C, 9 days",12.5 cm^2
same,Height,"0.01 mg/l, 2 °C, 9 days",7.4 cm
same,Weight of root,"0.01 mg/l, 2 °C, 9 days",3 g
same,Area of leaf,"0.01 mg/l, 2 °C, 12 days",13.4 cm^2
same,Height,"0.01 mg/l, 2 °C, 12 days",7.5 cm
same,Number of leaf,"0.01 mg/l, 2 °C, 12 days",3
same,Number of tiller,"0.01 mg/l, 2 °C, 12 days",3
same,Weight of root,"0.01 mg/l, 2 °C, 12 days",3.2 g
same,Area of leaf,"0.01 mg/l, 3 °C, 3 days",10.2 cm^2
same,Height,"0.01 mg/l, 3 °C, 3 days",7.1 cm
same,Weight of root,"0.01 mg/l, 3 °C, 3 days",2.5 g
same,Area of leaf,"0.01 mg/l, 3 °C, 6 days",12 cm^2
same,Height,"0.01 mg/l, 3 °C, 6 days",7.3 cm
same,Weight of root,"0.01 mg/l, 3 °C, 6 days",2.7 g
same,Area of leaf,"0.01 mg/l, 3 °C, 9 days",12.1 cm^2
